Measurements: PubChem BioAssay (NCI)
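Compound exposure: 48 hours, 5 concentrations, 96-well plates. TGI marks complete inhibition of growth.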

Legend:
Experiment in all cases: growth of human tumour cells (NCI), 48 h
[1] = system: LOX IMVI melanoma
[2] = system: NCI-H226 lung
[3] = system: CCRF-CEM leukemia
[4] = system: SN12C renal
[5] = system: HT29 colon
[6] = system: HS 578T breast
[7] = system: SW-620 colon
[8] = system: MALME-3M melanoma
[9] = system: PC-3 prostate
[10] = system: T-47D breast
[11] = system: HCT-15 colon
[12] = system: OVCAR-8 ovarian
[13] = system: DU-145 prostate
[14] = system: KM12 colon
[15] = system: HCC-2998 colon
[16] = system: U251 CNS
[17] = system: K-562 leukemia
[18] = system: HOP-62 NSCLC
[19] = system: UACC-257 melanoma

Cc1ccc2c(=O)cc(-c3cc4ccccc4s3)[nH]c2n1
TGI [1]: > 100 µM
TGI [2]: 98.6 µM
TGI [3]: > 100 µM
TGI [4]: > 100 µM
TGI [5]: > 100 µM
TGI [6]: > 100 µM
TGI [7]: > 100 µM
TGI [8]: > 100 µM
TGI [9]: > 100 µM
TGI [10]: 48 µM
TGI [11]: > 100 µM
TGI [12]: > 100 µM
TGI [13]: > 100 µM
TGI [14]: > 100 µM
TGI [15]: > 100 µM
TGI [16]: > 100 µM
TGI [17]: > 100 µM
TGI [18]: > 100 µM
TGI [19]: > 100 µM

CC(=O)N(C(=O)CC(=O)NNCc1ccccc1Cl)c1ccc(Cl)cc1
TGI [1]: > 10 µM
TGI [2]: > 10 µM
TGI [3]: > 10 µM
TGI [4]: > 10 µM
TGI [5]: > 10 µM
TGI [6]: > 10 µM
TGI [8]: > 10 µM
TGI [9]: > 10 µM
TGI [10]: > 10 µM
TGI [11]: > 10 µM
TGI [12]: > 10 µM
TGI [13]: > 10 µM
TGI [14]: > 10 µM
TGI [15]: > 10 µM
TGI [16]: > 10 µM
TGI [17]: > 10 µM
TGI [18]: > 10 µM
TGI [19]: > 10 µM

N=C1/C(=C/c2ccco2)C(=O)N=C2SC=NN12
TGI [1]: > 100 µM
TGI [2]: > 100 µM
TGI [3]: > 100 µM
TGI [4]: > 100 µM
TGI [5]: > 100 µM
TGI [6]: > 100 µM
TGI [7]: > 100 µM
TGI [8]: > 100 µM
TGI [9]: > 100 µM
TGI [10]: > 100 µM
TGI [11]: > 100 µM
TGI [12]: > 100 µM
TGI [13]: > 100 µM
TGI [14]: > 100 µM
TGI [15]: > 100 µM
TGI [16]: > 100 µM
TGI [17]: > 100 µM
TGI [18]: > 100 µM
TGI [19]: > 100 µM

CCCCCCCCCCCCCCCCCCNc1ccn(C2OC(COP(=O)(O)OCC(COP(=O)(O)OCC3OC(n4cc(C)c(=O)[nH]c4=O)CC3N=[N+]=[N-])OCCCCCCCCCCCCCCCCCC)C(O)C2O)c(=O)n1 (configuration not stated)
TGI [1]: 54.2 µM
TGI [2]: > 100 µM
TGI [3]: > 100 µM
TGI [4]: > 100 µM
TGI [5]: > 100 µM
TGI [6]: > 100 µM
TGI [7]: > 100 µM
TGI [8]: > 100 µM
TGI [9]: > 100 µM
TGI [10]: > 100 µM
TGI [11]: > 100 µM
TGI [12]: > 100 µM
TGI [13]: > 100 µM
TGI [14]: > 100 µM
TGI [15]: > 100 µM
TGI [16]: 27.8 µM
TGI [17]: > 100 µM
TGI [18]: > 100 µM
TGI [19]: > 100 µM

Cc1nc2ccc(F)cc2c2c1CCN2c1ccccc1
TGI [1]: 27.6 µM
TGI [2]: 41.8 µM
TGI [3]: 53.2 µM
TGI [5]: > 100 µM
TGI [6]: > 100 µM
TGI [7]: > 100 µM
TGI [8]: 40.8 µM
TGI [9]: 86.2 µM
TGI [10]: 85.8 µM
TGI [11]: > 100 µM
TGI [12]: 44.6 µM
TGI [13]: > 100 µM
TGI [14]: > 100 µM
TGI [15]: 38.2 µM
TGI [16]: 78.9 µM
TGI [17]: 33.4 µM
TGI [18]: > 100 µM
TGI [19]: 40.1 µM

COCn1c(=O)n(C)c(=O)c2c1nc1c(c(=O)n(C)c(=O)n1COC)[n+]2[O-]
TGI [1]: 27.7 µM
TGI [2]: 40.8 µM
TGI [3]: 27.4 µM
TGI [4]: 83.7 µM
TGI [5]: > 100 µM
TGI [6]: 50.1 µM
TGI [7]: > 100 µM
TGI [8]: 31.3 µM
TGI [9]: 34.1 µM
TGI [10]: 41.8 µM
TGI [11]: 30.6 µM
TGI [12]: 45.1 µM
TGI [13]: 94.9 µM
TGI [14]: > 100 µM
TGI [15]: 18.1 µM
TGI [16]: 59.6 µM
TGI [17]: 24 µM
TGI [18]: 59.1 µM
TGI [19]: 54.8 µM
